Laboratory results taken from patent US7125990B2, “Imidazolyl derivatives as corticotropin releasing factor inhibitors” (Bristol-Myers Squibb COmpany, priority 2001, dated 2006).

Biological target: T1, CRF1 receptors (Homo sapiens, UniProt P34998)
T1 construct: endogenous in cells; host or cells: IMR-32 cells, transformed with 2.5 µM 5'-bromo-2'-deoxyuridine for 10 days; membrane preparation
T1 sequence (P34998 24-415): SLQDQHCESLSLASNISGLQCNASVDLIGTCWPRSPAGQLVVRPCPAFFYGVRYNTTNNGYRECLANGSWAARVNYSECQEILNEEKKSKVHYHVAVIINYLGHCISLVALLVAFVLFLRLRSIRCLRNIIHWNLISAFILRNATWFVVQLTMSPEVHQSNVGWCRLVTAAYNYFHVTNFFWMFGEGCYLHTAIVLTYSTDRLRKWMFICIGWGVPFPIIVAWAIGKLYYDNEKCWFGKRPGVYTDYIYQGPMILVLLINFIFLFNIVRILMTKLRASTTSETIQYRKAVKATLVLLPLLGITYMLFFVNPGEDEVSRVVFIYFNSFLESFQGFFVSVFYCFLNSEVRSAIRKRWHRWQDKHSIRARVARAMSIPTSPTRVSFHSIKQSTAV
Test: CRF1 receptor radioligand binding assay ([125I]-oCRF competition, IMR-32 cell membranes)
Settings: IMR-32 cell membranes, [125I]-oCRF 100 pM; read-out: Ki (CRF-1R)
Outline: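 Buffer: Tris pH 7.2 with MgCl2, BSA, Triton X-100, aprotinin, leupeptin; reaction stopped with ice-cold wash and filtered. Nonspecific binding set with 10 μM oCRF.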

Compound	Ki [nM]
CCCN(Cc1c(C(F)(F)F)nc2n1CCCN2c1c(C)cc(C)cc1C)CC(F)(F)F [Example 79, Propyl-(2,2,2-trifluoro-ethyl)-[2-trifluoromethyl-8-(2,4,6-trimethyl-phenyl)-5,6,7,8-tetrahydro-imidazo[1,2-a]pyrimidin-3-ylmethyl]-amine]	< 100
CCCN(Cc1c(C(F)(F)F)nc2n1CCCN2c1c(C)cc(C)cc1C)CC(F)(F)C(F)(F)F [Example 80, (2,2,3,3,3-Pentafluoro-propyl)-propyl-[2-trifluoromethyl-8-(2,4,6-trimethyl-phenyl)-5,6,7,8-tetrahydro-imidazo[1,2-a]pyrimidin-3-ylmethyl]-amine]	< 1000
CCCN(CCc1ccccc1)Cc1c(C(F)(F)F)nc2n1CCCN2c1c(C)cc(C)cc1C [Example 83, Phenethyl-propyl-[2-trifluoromethyl-8-(2,4,6-trimethyl-phenyl)-5,6,7,8-tetrahydro-imidazo[1,2-a]pyrimidin-3-ylmethyl]-amine]	< 100
CCN(CCc1ccccc1)Cc1c(C(F)(F)F)nc2n1CCCN2c1c(C)cc(C)cc1C [Example 84, Ethyl-phenethyl-[2-trifluoromethyl-8-(2,4,6-trimethyl-phenyl)-5,6,7,8-tetrahydro-imidazo[1,2-a]pyrimidin-3-ylmethyl]-amine]	< 1000
Cc1cc(C)c(N2CCCn3c2nc(C(F)(F)F)c3CN(CCC(F)(F)F)Cc2ccccc2)c(C)c1 [Example 86, Benzyl-[2-trifluoromethyl-8-(2,4,6-trimethyl-phenyl)-5,6,7,8-tetrahydro-imidazo[1,2-a]pyrimidin-3-ylmethyl]-(3,3,3-trifluoro-propyl)-amine]	< 1000
CCCN(CCC1CC1)Cc1c(C(F)(F)F)nc2n1CCCN2c1c(C)cc(C)cc1C [Example 87, (2-Cyclopropyl-ethyl)-propyl-[2-trifluoromethyl-8-(2,4,6-trimethyl-phenyl)-5,6,7,8-tetrahydro-imidazo[1,2-a]pyrimidin-3-ylmethyl]-amine]	< 1000
CCCN(Cc1ccc(F)cc1)Cc1c(C(F)(F)F)nc2n1CCCN2c1c(C)cc(C)cc1C [Example 92, (4-Fluoro-benzyl)-propyl-[2-trifluoromethyl-8-(2,4,6-trimethyl-phenyl)-5,6,7,8-tetrahydro-imidazo[1,2-a]pyrimidin-3-ylmethyl]-amine]	< 1000
Cc1cc(C)c(N2CCCn3c2nc(C(F)(F)F)c3CN(CCC(F)(F)F)Cc2ccc(Cl)cc2)c(C)c1 [Example 93, (4-Chloro-benzyl)-[2-trifluoromethyl-8-(2,4,6-trimethyl-phenyl)-5,6,7,8-tetrahydro-imidazo[1,2-a]pyrimidin-3-ylmethyl]-(3,3,3-trifluoro-propyl)-amine]	< 100
CCCN(Cc1ccc(Cl)cc1)Cc1c(C(F)(F)F)nc2n1CCCN2c1c(C)cc(C)cc1C [Example 94, (4-Chloro-benzyl)-propyl-[2-trifluoromethyl-8-(2,4,6-trimethyl-phenyl)-5,6,7,8-tetrahydro-imidazo[1,2-a]pyrimidin-3-ylmethyl]-amine]	< 1000
C=CCN(CCC)Cc1c(C(F)(F)F)nc2n1CCCN2c1c(C)cc(C)cc1C [Example 95, Allyl-propyl-[2-trifluoromethyl-8-(2,4,6-trimethyl-phenyl)-5,6,7,8-tetrahydro-imidazo[1,2-a]pyrimidin-3-ylmethyl]-amine]	< 100
Cc1cc(C)c(N2CCCn3c2nc(C(F)(F)F)c3CN2CCOCC2)c(Cl)c1 [Example 97, 8-(2-Chloro-4,6-dimethyl-phenyl)-3-morpholin-4-ylmethyl-2-trifluoromethyl-5,6,7,8-tetrahydro-imidazo[1,2-a]pyrimidine]	< 1000
Cc1cc(C)c(N2CCCn3c2nc(C(F)(F)F)c3CN2CCCCC2)c(Cl)c1 [Example 99, 8-(2-Chloro-4,6-dimethyl-phenyl)-3-piperidin-1-ylmethyl-2-trifluoromethyl-5,6,7,8-tetrahydro-imidazo[1,2-a]pyrimidine]	< 1000

More lines, now with the values ahead:

Ki [nM]	Compound
< 1000	CCCN(CCC(F)(F)F)Cc1c(C(F)(F)F)nc2n1CCCN2c1c(C)cc(C)cc1C [Example 78, Propyl-[2-trifluoromethyl-8-(2,4,6-trimethyl-phenyl)-5,6,7,8-tetrahydro-imidazo[1,2-a]pyrimidin-3-ylmethyl]-(3,3,3-trifluoro-propyl)-amine]
< 1000	Cc1cc(C)c(N2CCCn3c2nc(C(F)(F)F)c3CN(CCc2ccccc2)CCC(F)(F)F)c(C)c1 [Example 81, Phenethyl-[2-trifluoromethyl-8-(2,4,6-trimethyl-phenyl)-5,6,7,8-tetrahydro-imidazo[1,2-a]pyrimidin-3-ylmethyl]-(3,3,3-trifluoro-propyl)-amine]
< 100	Cc1cc(C)c(N2CCCn3c2nc(C(F)(F)F)c3CN(CCc2ccccc2)CC(F)(F)F)c(C)c1 [Example 82, Phenethyl-(2,2,2-trifluoro-ethyl)-[2-trifluoromethyl-8-(2,4,6-trimethyl-phenyl)-5,6,7,8-tetrahydro-imidazo[1,2-a]pyrimidin-3-ylmethyl]-amine]
< 10000	Cc1cc(C)c(N2CCCn3c2nc(C(F)(F)F)c3CN(Cc2ccccc2)CC(F)(F)F)c(C)c1 [Example 85, Benzyl-(2,2,2-trifluoro-ethyl)-[2-trifluoromethyl-8-(2,4,6-trimethyl-phenyl)-5,6,7,8-tetrahydro-imidazo[1,2-a]pyrimidin-3-ylmethyl]-amine]
< 1000	CCN(CCC1CC1)Cc1c(C(F)(F)F)nc2n1CCCN2c1c(C)cc(C)cc1C [Example 88, (2-Cyclopropyl-ethyl)-ethyl-[2-trifluoromethyl-8-(2,4,6-trimethyl-phenyl)-5,6,7,8-tetrahydro-imidazo[1,2-a]pyrimidin-3-ylmethyl]-amine]
< 1000	Cc1cc(C)c(N2CCCn3c2nc(C(F)(F)F)c3CN(CCC2CC2)CCC(F)(F)F)c(C)c1 [Example 89, (2-Cyclopropyl-ethyl)-[2-trifluoromethyl-8-(2,4,6-trimethyl-phenyl)-5,6,7,8-tetrahydro-imidazo[1,2-a]pyrimidin-3-ylmethyl]-(3,3,3-trifluoro-propyl)-amine]
< 1000	Cc1cc(C)c(N2CCCn3c2nc(C(F)(F)F)c3CN(CCC2CC2)CC(F)(F)F)c(C)c1 [Example 90, (2-Cyclopropyl-ethyl)-(2,2,2-trifluoro-ethyl)-[2-trifluoromethyl-8-(2,4,6-trimethyl-phenyl)-5,6,7,8-tetrahydro-imidazo[1,2-a]pyrimidin-3-ylmethyl]-amine]
< 1000	Cc1cc(C)c(N2CCCn3c2nc(C(F)(F)F)c3CN(CCC(F)(F)F)Cc2ccc(F)cc2)c(C)c1 [Example 91, (4-Fluoro-benzyl)-[2-trifluoromethyl-8-(2,4,6-trimethyl-phenyl)-5,6,7,8-tetrahydro-imidazo[1,2-a]pyrimidin-3-ylmethyl]-(3,3,3-trifluoro-propyl)-amine]
< 100	CCCN(Cc1c(C(F)(F)F)nc2n1CCCN2c1c(C)cc(C)cc1Cl)CC1CC1 [Example 96, [8-(2-Chloro-4,6-dimethyl-phenyl)-2-trifluoromethyl-5,6,7,8-tetrahydro-imidazo[1,2-a]pyrimidin-3-ylmethyl]-cyclopropylmethyl-propyl-amine]
< 1000	Cc1cc(C)c(N2CCCn3c2nc(C(F)(F)F)c3CN2CCSCC2)c(Cl)c1 [Example 98, 8-(2-Chloro-4,6-dimethyl-phenyl)-3-thiomorpholin-4-ylmethyl-2-trifluoromethyl-5,6,7,8-tetrahydro-imidazo[1,2-a]pyrimidine]
